ChEMBL document CHEMBL4304811, “Development of a Water-Soluble Indolylmaleimide Derivative IM-93 Showing Dual Inhibition of Ferroptosis and NETosis” (ACS Med Chem Lett, 2019)

Columns and labels:
[1] = target: Mitogen-activated protein kinase kinase kinase 5 (Homo sapiens) (UniProt Q99683); assay: Binding affinity to wild-type human partial length ASK1 (E648 to S964 residues) expressed in bacterial expression system assessed as residual binding level at 10 uM by Kinomescan method relative to control
[2] = target: BMP-2-inducible protein kinase (Homo sapiens) (UniProt Q9NSY1); assay: Binding affinity to wild-type human partial length BIKE (S34 to N329 residues) expressed in bacterial expression system assessed as residual binding level at 10 uM by Kinomescan method relative to control
[3] = target: Cytoplasmic tyrosine-protein kinase BMX (Homo sapiens) (UniProt P51813); assay: Binding affinity to wild-type human full length BMX (M1 to H675 residues) expressed in bacterial expression system assessed as residual binding level at 10 uM by Kinomescan method relative to control
[4] = target: Serine/threonine-protein kinase Chk2 (Homo sapiens) (UniProt O96017); assay: Binding affinity to wild-type human partial length CHEK2 (S253 to E574 residues) expressed in bacterial expression system assessed as residual binding level at 10 uM by Kinomescan method relative to control
[5] = target: Ephrin type-A receptor 4 (Homo sapiens) (UniProt P54764); assay: Binding affinity to wild-type human partial length EPHA4 (T601 to R897 residues) expressed in bacterial expression system assessed as residual binding level at 10 uM by Kinomescan method relative to control
[6] = target: Receptor tyrosine-protein kinase erbB-2 (Homo sapiens) (UniProt P04626); assay: Binding affinity to wild-type human partial length ERBB2 (K646 to V1225 residues) expressed in mammalian expression system assessed as residual binding level at 10 uM by Kinomescan method relative to control
[7] = target: Fibroblast growth factor receptor 3 (Homo sapiens) (UniProt P22607); assay: Binding affinity to wild-type human partial length FGFR3 (R442 to S771 residues) expressed in bacterial expression system assessed as residual binding level at 10 uM by Kinomescan method relative to control
[8] = target: Homeodomain-interacting protein kinase 4 (Homo sapiens) (UniProt Q8NE63); assay: Binding affinity to wild-type human partial length HIPK4 (M1 to V384 residues) expressed in bacterial expression system assessed as residual binding level at 10 uM by Kinomescan method relative to control
[9] = target: Mitogen-activated protein kinase 10 (Homo sapiens) (UniProt P53779); assay: Binding affinity to wild-type human partial length JNK3 (V28 to Q422 residues) expressed in mammalian expression system assessed as residual binding level at 10 uM by Kinomescan method relative to control
[10] = target: MAP kinase-activated protein kinase 2 (Homo sapiens) (UniProt P49137); assay: Binding affinity to wild-type human partial length MAPKAPK2 (V48 to D345 residues) expressed in bacterial expression system assessed as residual binding level at 10 uM by Kinomescan method relative to control
[11] = target: Mitogen-activated protein kinase kinase kinase 11 (Homo sapiens) (UniProt Q16584); assay: Binding affinity to wild-type human partial length MLK3 (I77 to W399 residues) expressed in bacterial expression system assessed as residual binding level at 10 uM by Kinomescan method relative to control
[12] = target: Serine/threonine-protein kinase 26 (Homo sapiens) (UniProt Q9P289); assay: Binding affinity to wild-type human full length MST4 (M1 to P416 residues) expressed in mammalian expression system assessed as residual binding level at 10 uM by Kinomescan method relative to control
[13] = target: Myosin light chain kinase family member 4 (Homo sapiens) (UniProt Q86YV6); assay: Binding affinity to wild-type human partial length MYLK4 (V79 to S380 residues) expressed in bacterial expression system assessed as residual binding level at 10 uM by Kinomescan method relative to control
[14] = target: Serine/threonine-protein kinase Nek10 (Homo sapiens) (UniProt Q6ZWH5); assay: Binding affinity to wild-type human partial length NEK10 (L488 to R809 residues) expressed in mammalian expression system assessed as residual binding level at 10 uM by Kinomescan method relative to control
[15] = system: Phosphatidylinositol 4,5-bisphosphate 3-kinase catalytic subunit alpha isoform (Homo sapiens), P42336 [M1043I]; assay: Binding affinity to human partial length PIK3CA M1043I mutant (R108 to N1068 residues) expressed in mammalian expression system assessed as residual binding level at 10 uM by Kinomescan method relative to control
[16] = target: Phosphatidylinositol 4-kinase beta (Homo sapiens) (UniProt Q9UBF8); assay: Binding affinity to wild-type human full length PIK4CB (M1 to M828 residues) expressed in mammalian expression system assessed as residual binding level at 10 uM by Kinomescan method relative to control
[17] = target: Protein kinase C theta type (Homo sapiens) (UniProt Q04759); assay: Binding affinity to wild-type human partial length PRKCQ (L350 to S706 residues) expressed in bacterial expression system assessed as residual binding level at 10 uM by Kinomescan method relative to control
[18] = target: Ribosomal protein S6 kinase alpha-5 (Homo sapiens) (UniProt O75582); assay: Binding affinity to wild-type human partial length C-terminal RPS6KA5 kinase domain 2 (V390 to T718 residues) expressed in bacterial expression system assessed as residual binding level at 10 uM by Kinomescan method relative to control
[19] = target: Ribosomal protein S6 kinase alpha-6 (Homo sapiens) (UniProt Q9UK32); assay: Binding affinity to wild-type human partial length C-terminal RSK4 kinase domain 2 (I401 to Y711 residues) expressed in bacterial expression system assessed as residual binding level at 10 uM by Kinomescan method relative to control
[20] = target: Ribosomal protein S6 kinase beta-1 (Homo sapiens) (UniProt P23443); assay: Binding affinity to wild-type human partial length S6K1 (M1 to S421 residues) expressed in mammalian expression system assessed as residual binding level at 10 uM by Kinomescan method relative to control
[21] = target: SRSF protein kinase 2 (Homo sapiens) (UniProt P78362); assay: Binding affinity to wild-type human full length SRPK2 (M1 to S686 residues) expressed in bacterial expression system assessed as residual binding level at 10 uM by Kinomescan method relative to control
[22] = target: Serine/threonine-protein kinase TAO1 (Homo sapiens) (UniProt Q7L7X3); assay: Binding affinity to wild-type human partial length TAOK1 (M1 to A320 residues) expressed in mammalian expression system assessed as residual binding level at 10 uM by Kinomescan method relative to control
[23] = target: High affinity nerve growth factor receptor (Homo sapiens) (UniProt P04629); assay: Binding affinity to wild-type human partial length TRKA (G475 to G790 residues) expressed in mammalian expression system assessed as residual binding level at 10 uM by Kinomescan method relative to control
[24] = target: Serine/threonine-protein kinase WNK3 (Homo sapiens) (UniProt Q9BYP7); assay: Binding affinity to wild-type human partial length WNK3 (M1 to D434 residues) expressed in mammalian expression system assessed as residual binding level at 10 uM by Kinomescan method relative to control
[25] = Stability of compound in D2O at 0.012 mmol followed by H2O2 addition measured after 2 hrs by 1H-NMR spectroscopy; type: physicochemical

Myosin light chain kinase family member 4 (Homo sapiens), sequence (Q86YV6 whole entry, the tested form may be a part): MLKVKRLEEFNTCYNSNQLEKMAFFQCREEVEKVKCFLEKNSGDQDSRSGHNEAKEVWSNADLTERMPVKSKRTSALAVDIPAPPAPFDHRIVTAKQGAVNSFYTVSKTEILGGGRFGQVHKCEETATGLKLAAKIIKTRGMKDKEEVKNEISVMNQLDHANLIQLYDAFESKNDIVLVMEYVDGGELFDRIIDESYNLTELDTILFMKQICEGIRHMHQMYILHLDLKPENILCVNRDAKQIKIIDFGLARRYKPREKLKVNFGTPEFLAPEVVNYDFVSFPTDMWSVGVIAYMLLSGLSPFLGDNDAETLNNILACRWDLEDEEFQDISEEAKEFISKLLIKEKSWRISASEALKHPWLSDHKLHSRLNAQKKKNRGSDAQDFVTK
Mitogen-activated protein kinase kinase kinase 5 (Homo sapiens), sequence (Q99683 whole entry, the tested form may be a part): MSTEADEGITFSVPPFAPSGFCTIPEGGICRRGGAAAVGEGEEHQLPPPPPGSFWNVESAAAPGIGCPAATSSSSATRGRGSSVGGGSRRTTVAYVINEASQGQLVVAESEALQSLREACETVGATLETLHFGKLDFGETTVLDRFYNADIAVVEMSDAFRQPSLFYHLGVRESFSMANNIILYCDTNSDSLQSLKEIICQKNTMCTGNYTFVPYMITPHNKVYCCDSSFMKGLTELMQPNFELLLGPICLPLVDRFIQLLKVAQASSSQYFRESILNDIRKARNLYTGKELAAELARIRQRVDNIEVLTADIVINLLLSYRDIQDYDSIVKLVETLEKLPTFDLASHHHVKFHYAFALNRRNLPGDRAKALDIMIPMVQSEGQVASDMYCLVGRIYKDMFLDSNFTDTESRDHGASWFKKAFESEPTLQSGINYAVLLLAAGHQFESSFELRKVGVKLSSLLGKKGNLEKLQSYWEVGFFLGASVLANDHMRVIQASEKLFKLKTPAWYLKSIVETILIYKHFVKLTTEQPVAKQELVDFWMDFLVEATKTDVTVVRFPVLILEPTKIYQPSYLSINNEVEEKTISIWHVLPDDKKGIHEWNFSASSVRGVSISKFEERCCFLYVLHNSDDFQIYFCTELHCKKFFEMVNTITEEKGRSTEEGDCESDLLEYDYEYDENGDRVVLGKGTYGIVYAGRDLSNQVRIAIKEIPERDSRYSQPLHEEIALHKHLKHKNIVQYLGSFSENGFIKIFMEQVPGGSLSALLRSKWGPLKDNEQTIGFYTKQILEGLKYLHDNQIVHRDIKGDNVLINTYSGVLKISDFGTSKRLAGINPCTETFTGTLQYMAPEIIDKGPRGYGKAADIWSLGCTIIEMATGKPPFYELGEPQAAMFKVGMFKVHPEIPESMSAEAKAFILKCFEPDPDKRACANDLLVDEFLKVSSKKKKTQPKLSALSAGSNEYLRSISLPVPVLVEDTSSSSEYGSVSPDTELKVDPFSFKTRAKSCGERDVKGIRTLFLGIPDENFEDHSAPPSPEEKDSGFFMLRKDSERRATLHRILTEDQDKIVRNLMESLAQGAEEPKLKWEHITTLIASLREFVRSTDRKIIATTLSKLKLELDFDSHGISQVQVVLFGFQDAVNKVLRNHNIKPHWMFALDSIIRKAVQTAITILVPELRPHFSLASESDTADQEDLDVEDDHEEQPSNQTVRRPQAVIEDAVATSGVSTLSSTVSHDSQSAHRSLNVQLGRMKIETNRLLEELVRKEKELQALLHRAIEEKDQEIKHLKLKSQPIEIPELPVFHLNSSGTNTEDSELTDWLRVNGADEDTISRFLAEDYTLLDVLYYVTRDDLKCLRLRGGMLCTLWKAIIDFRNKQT
Ribosomal protein S6 kinase alpha-5 (Homo sapiens), sequence (O75582 whole entry, looked up, the tested form may be a part): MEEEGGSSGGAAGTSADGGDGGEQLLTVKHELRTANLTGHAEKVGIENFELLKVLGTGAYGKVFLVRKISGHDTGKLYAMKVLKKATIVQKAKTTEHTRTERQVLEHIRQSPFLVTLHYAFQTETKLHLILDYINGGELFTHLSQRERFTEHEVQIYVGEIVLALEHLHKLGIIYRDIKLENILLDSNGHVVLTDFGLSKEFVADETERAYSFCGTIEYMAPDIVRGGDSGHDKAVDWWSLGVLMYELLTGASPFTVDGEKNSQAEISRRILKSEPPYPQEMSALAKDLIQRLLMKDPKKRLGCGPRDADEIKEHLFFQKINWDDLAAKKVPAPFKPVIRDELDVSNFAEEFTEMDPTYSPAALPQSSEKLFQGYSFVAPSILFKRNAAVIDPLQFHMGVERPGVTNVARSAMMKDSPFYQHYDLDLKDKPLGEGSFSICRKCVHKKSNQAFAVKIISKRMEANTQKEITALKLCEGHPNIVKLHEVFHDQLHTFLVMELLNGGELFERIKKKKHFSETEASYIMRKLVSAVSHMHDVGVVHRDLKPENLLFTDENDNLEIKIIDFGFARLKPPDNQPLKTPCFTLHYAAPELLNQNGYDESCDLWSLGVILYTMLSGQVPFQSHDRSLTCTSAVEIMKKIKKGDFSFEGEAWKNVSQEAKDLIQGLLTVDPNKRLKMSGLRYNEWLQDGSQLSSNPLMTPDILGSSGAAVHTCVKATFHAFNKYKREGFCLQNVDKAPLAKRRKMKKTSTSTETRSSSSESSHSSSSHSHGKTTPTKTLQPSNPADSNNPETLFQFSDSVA
Serine/threonine-protein kinase TAO1 (Homo sapiens), sequence (Q7L7X3 whole entry, the tested form may be a part): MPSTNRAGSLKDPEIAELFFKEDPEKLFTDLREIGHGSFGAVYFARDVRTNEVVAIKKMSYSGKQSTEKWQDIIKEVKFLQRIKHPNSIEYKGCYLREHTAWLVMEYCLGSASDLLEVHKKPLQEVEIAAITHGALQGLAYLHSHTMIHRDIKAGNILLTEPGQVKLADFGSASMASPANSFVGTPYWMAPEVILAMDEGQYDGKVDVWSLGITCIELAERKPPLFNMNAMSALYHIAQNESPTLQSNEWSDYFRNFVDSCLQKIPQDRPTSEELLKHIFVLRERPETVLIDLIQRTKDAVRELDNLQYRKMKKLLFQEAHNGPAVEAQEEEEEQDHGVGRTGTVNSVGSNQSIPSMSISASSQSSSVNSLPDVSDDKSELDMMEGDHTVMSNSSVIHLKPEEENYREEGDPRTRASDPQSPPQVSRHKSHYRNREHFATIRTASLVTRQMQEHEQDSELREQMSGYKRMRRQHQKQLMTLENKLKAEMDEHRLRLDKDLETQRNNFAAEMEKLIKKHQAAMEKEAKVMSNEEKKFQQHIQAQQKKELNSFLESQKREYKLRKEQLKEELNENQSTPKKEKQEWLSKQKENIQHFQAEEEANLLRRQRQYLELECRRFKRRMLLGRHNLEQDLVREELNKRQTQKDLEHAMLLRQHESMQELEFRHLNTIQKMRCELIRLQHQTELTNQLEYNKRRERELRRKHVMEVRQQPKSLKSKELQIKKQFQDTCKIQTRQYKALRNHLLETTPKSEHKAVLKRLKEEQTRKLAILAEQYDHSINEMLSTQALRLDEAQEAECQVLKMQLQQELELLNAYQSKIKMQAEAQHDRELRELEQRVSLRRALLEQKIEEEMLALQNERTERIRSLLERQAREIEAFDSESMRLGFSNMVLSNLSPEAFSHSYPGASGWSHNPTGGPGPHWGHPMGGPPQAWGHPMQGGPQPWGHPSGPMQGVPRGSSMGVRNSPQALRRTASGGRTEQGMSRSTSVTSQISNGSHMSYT
Ribosomal protein S6 kinase beta-1 (Homo sapiens), sequence (P23443 whole entry, looked up, the tested form may be a part): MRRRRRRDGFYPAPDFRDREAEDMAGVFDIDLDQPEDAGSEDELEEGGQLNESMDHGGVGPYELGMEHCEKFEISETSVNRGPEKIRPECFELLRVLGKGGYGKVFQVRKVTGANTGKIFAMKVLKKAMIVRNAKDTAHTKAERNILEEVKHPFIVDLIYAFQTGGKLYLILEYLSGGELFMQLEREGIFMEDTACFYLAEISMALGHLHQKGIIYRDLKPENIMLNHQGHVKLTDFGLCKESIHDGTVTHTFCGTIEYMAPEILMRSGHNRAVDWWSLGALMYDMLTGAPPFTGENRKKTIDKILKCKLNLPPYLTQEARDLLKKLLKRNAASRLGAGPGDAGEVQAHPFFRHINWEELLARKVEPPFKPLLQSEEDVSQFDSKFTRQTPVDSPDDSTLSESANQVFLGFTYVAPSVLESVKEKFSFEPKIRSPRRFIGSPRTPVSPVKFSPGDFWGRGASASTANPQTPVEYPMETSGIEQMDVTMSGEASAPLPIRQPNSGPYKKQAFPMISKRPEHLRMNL
Mitogen-activated protein kinase kinase kinase 11 (Homo sapiens), sequence (Q16584 whole entry, looked up, the tested form may be a part): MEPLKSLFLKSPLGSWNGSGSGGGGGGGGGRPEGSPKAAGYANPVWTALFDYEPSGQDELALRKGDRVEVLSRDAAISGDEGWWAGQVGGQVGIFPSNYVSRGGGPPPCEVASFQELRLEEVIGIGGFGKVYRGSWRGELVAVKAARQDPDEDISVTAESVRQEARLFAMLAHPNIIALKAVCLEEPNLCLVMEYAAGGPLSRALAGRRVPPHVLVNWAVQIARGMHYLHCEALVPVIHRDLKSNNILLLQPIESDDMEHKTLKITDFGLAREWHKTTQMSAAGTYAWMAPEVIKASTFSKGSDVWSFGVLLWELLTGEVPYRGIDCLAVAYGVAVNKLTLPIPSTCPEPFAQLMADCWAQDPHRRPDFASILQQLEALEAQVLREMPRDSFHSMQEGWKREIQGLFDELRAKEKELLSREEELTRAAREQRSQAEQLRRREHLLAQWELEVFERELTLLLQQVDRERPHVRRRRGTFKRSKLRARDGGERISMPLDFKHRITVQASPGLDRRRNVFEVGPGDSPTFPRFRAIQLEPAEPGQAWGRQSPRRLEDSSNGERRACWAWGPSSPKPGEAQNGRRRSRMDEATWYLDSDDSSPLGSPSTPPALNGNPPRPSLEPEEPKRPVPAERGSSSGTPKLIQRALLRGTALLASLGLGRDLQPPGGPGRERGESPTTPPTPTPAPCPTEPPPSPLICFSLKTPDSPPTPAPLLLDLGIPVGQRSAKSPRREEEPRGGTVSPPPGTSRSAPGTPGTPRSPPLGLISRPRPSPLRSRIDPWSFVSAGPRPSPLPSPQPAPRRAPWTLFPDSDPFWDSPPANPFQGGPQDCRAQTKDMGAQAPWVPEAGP

CC(C)N1C(=O)C(NCCCN(C)C)=C(c2cn(C)c3ccccc23)C1=O.Cl
Activity [1]: 96% | Activity [2]: 94% | Activity [3]: 97% | Activity [4]: 80% | Activity [5]: 100% | Activity [6]: 92% | Activity [7]: 100% | Activity [8]: 84% | Activity [9]: 85% | Activity [10]: 94% | Activity [11]: 91% | Activity [12]: 83% | Activity [13]: 100% | Activity [14]: 95% | Activity [15]: 67% | Activity [16]: 85% | Activity [17]: 100% | Activity [18]: 96% | Activity [19]: 100% | Activity [20]: 77% | Activity [21]: 100% | Activity [22]: 78% | Activity [23]: 100% | Activity [24]: 78% | Stability [25]: Stable
